The source of these data is US12570642B2, “GLP-IR modulating compounds” (Gilead Sciences, Inc., priority 2021, dated 2026).

In the experiment the target is GLP-1R (Homo sapiens, UniProt P43220). Put plainly: GLP-1R Activation - cAMP Assay. It is filed as cell-based. As to conditions: cAMP increase in CHO cells stably expressing GLP-1R; each compound run on one of the two cAMP assays (Assay 1 or Assay 2, not specified). In short, it runs like this:
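cAMP rise read by HTRF after 30 min agonist exposure (10-point titration, 37 °C) in HBSS/20 mM Hepes/0.1% BSA, following 1 h pre-incubation. Cells: stable GLP-1R CHO line, 1,000/well, seeded overnight. Sigmoidal fit of response vs log concentration gives EC50.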

Molecules are shown by their SMILES.

Chain of GLP-1R (P43220 24-463): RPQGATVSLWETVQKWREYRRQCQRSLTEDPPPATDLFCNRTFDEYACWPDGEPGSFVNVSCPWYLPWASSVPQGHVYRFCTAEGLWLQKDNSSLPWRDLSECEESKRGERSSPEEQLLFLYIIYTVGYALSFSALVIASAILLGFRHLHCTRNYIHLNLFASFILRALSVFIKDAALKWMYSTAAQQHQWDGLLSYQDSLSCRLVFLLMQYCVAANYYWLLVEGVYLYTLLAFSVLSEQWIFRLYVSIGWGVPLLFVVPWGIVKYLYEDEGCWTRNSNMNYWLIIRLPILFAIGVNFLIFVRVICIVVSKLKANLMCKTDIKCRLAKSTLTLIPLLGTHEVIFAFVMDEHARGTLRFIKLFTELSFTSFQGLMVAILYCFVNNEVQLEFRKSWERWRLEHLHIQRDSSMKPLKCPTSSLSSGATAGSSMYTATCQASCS

For the compound `Cn1nncc1-c1ccc(COc2cccc(-c3cc(F)c(Cc4nc5ccc(C(=O)O)cc5n4[C@@H]4COCC4(C)C)cc3F)n2)c(F)c1` [Example 554, (S)-2-(2,5-difluoro-4-(6-((2-fluoro-4-(1-methyl-1H-1,2,3-triazol-5-yl)benzyl)oxy)pyridin-2-yl)benzyl)-1-(4,4-dimethyltetrahydrofuran-3-yl)-1H-benzo[d]imidazole-6-carboxylic acid], the EC50 (usually the concentration needed to bring the measured effect to its halfway point) came out at 0.026 nM. Under `COCCn1c(Cc2cc(F)c(-c3cccc(OCc4cnc(Cl)cc4OC)n3)cc2F)nc2c(F)cc(C(=O)O)cc21` [Example 291, 2-(4-(6-((6-chloro-4-methoxypyridin-3-yl)methoxy)pyridin-2-yl)-2,5-difluorobenzyl)-4-fluoro-1-(2-methoxyethyl)-1H-benzo[d]imidazole-6-carboxylic acid] stands 0.076 nM. Under `COCCn1c(Cc2cc(F)c(-c3cccc(OCc4ccc(OCC(F)(F)F)nc4)n3)cc2F)nc2ccc(C(=O)O)cc21` [Example 35, 2-(2,5-difluoro-4-(6-((6-(2,2,2-trifluoroethoxy)pyridin-3-yl)methoxy)pyridin-2-yl)benzyl)-1-(2-methoxyethyl)-1H-benzo[d]imidazole-6-carboxylic Acid] stands 2.67 nM; under `COc1nc(Cl)ccc1COc1cccc(-c2cc(F)c(Cc3nc4c(F)cc(C(=O)O)cc4n3C3COCC3(C)C)cc2F)n1` (stereo not shown) [Example 170, 2-(4-(6-((6-chloro-2-methoxypyridin-3-yl)methoxy)pyridin-2-yl)-2,5-difluorobenzyl)-1-(4,4-dimethyltetrahydrofuran-3-yl)-4-fluoro-1H-benzo[d]imidazole-6-carboxylic Acid], 0.227 nM. Next, `CC1(C)COC[C@H]1n1c(Cc2cc(F)c(-c3cccc(OCc4ccc(-c5cnn(C(F)F)c5)cc4F)n3)cc2F)nc2ccc(C(=O)O)cc21` [Example 443, (S)-2-(4-(6-((4-(1-(difluoromethyl)-1H-pyrazol-4-yl)-2-fluorobenzyl)oxy)pyridin-2-yl)-2,5-difluorobenzyl)-1-(4,4-dimethyltetrahydrofuran-3-yl)-1H-benzo[d]imidazole-6-carboxylic acid]: 0.21 nM. Compound `CC1(C)COC[C@H]1n1c(Cc2cc(F)c(-c3cccc(OCc4ccc(OCC(F)(F)F)nc4)n3)cc2F)nc2ccc(C(=O)O)cc21` [Example 424, (S)-2-(2,5-difluoro-4-(6-((6-(2,2,2-trifluoroethoxy)pyridin-3-yl)methoxy)pyridin-2-yl)benzyl)-1-(4,4-dimethyltetrahydrofuran-3-yl)-1H-benzo[d]imidazole-6-carboxylic acid] returned an EC50 of 0.59 nM.

`CC1(C)COC[C@H]1n1c(Cc2cc(F)c(-c3cccc(OCc4cc(F)c(C#N)cc4F)n3)cc2F)nc2ccc(C(=O)O)cc21` [Example 487, (S)-2-(4-(6-((4-cyano-2,5-difluorobenzyl)oxy)pyridin-2-yl)-2,5-difluorobenzyl)-1-(4,4-dimethyltetrahydrofuran-3-yl)-1H-benzo[d]imidazole-6-carboxylic acid] registered an EC50 of 0.159 nM. This EC50 is about 3.7-fold lower than that of the compound before.

For the compound `CC1(C)COC[C@H]1n1c(Cc2cc(F)c(-c3ccc(F)c(OCc4cc(F)c(C#N)cc4F)n3)cc2F)nc2c(F)cc(C(=O)O)cc21` [Example 483, (S)-2-(4-(6-((4-cyano-2,5-difluorobenzyl)oxy)-5-fluoropyridin-2-yl)-2,5-difluorobenzyl)-1-(4,4-dimethyltetrahydrofuran-3-yl)-4-fluoro-1H-benzo[d]imidazole-6-carboxylic acid], a half-maximal effect (EC50) was put at 0.022 nM. Next, `CC1(C)COC[C@@H]1n1c(Cc2cc(F)c(-c3cccc(OCc4ccc(C#N)cc4F)n3)cc2F)nc2ccc(C(=O)O)cc21` [Example 59]: 0.32 nM.

`CC1(C)COC[C@H]1n1c(Cc2cc(F)c(-c3cccc(OCc4ccc5c(c4)CN(S(C)(=O)=O)C5)n3)cc2F)nc2c(F)cc(C(=O)O)cc21` [Example 240, (S)-2-(2,5-difluoro-4-(6-((2-(methylsulfonyl)isoindolin-5-yl)methoxy)pyridin-2-yl)benzyl)-1-(4,4-dimethyltetrahydrofuran-3-yl)-4-fluoro-1H-benzo[d]imidazole-6-carboxylic acid] had an EC50 of 0.127 nM.
